From ChEMBL document CHEMBL1130305, “The design and synthesis of orally active short duration spiroindane growth hormone secretagogues” (Bioorg Med Chem Lett, 1997)

Key:
[1] = half life was evaluated; format: ADME
Canis familiaris [2] = assay: Compound was evaluated for the lowest dose where fourfold elevations over basal GH levels were observed in Beagle dog model after intravenous dose of 0.025 mpk and 0.125 mpk oral dose; 6/8; format: functional, Canis lupus familiaris
Canis familiaris [3] = organism: Canis familiaris; assay: Compound was evaluated for the lowest dose where fourfold elevations over basal GH levels were observed in Beagle dog model after peroral dose of 0.25 mpk; 8/8; format: functional, Canis lupus familiaris
Canis familiaris [4] = organism: Canis familiaris; assay: Compound was evaluated for the lowest dose where fourfold elevations over basal GH levels were observed in Beagle dog model after peroral dose of 0.5 mpk; 4/4; format: functional, Canis lupus familiaris
Canis familiaris [5] = organism: Canis familiaris; assay: Compound was evaluated for the lowest dose where fourfold elevations over basal GH levels were observed in Beagle dog model after peroral dose of 0.25 mpk; 2/5; format: functional, Canis lupus familiaris
Canis familiaris [6] = assay: Compound was evaluated for the lowest dose where fourfold elevations over basal GH levels were observed in Beagle dog model after intravenous dose of 0.025 mpk and 0.125 mpk oral dose; 1/2; format: functional, Canis lupus familiaris
[7] = Compound was evaluated for its bioavailability in the rats; format: ADME, organism-based; conditions: rat, in vivo; read-out: Bioavailabiility
Canis familiaris [8] = assay: Compound was evaluated for percentage of increase in IGF-1 levels, after chronic oral dosing at 1.0 mpk on day 4; format: functional, Canis lupus familiaris
Canis familiaris [9] = organism: Canis familiaris; assay: Compound was evaluated for the lowest dose where fourfold elevations over basal GH levels were observed in Beagle dog model after peroral dose of 0.25 mpk; 5/8; format: functional, Canis lupus familiaris
Canis familiaris [10] = assay: Compound was evaluated for percentage of growth hormone of day1 response, after chronic oral dosing at 0.5 mpk on day 4; format: functional, Canis lupus familiaris
[11] = Compound was evaluated for its absorption in the rats; format: ADME, organism-based; conditions: rat, in vivo; read-out: Absorption
Canis familiaris [12] = assay: Compound was evaluated for percentage of growth hormone of day1 response, after chronic oral dosing at 1.0 mpk on day 4; format: functional, Canis lupus familiaris
Canis familiaris [13] = assay: Compound was evaluated for percentage of increase in IGF-1 levels, after chronic oral dosing at 0.5 mpk on day 4; format: functional, Canis lupus familiaris
[14] = Compound was evaluated for its bioavailability in the dogs; format: ADME, organism-based, Canis lupus familiaris; conditions: dog, in vivo; read-out: Bioavailabiility
Canis familiaris [15] = organism: Canis familiaris; assay: Compound was evaluated for the lowest dose where fourfold elevations over basal GH levels were observed in Beagle dog model after peroral dose of 0.5 mpk; 1/2; format: functional, Canis lupus familiaris
Canis familiaris [16] = organism: Canis familiaris; assay: Compound was evaluated for the lowest dose where fourfold elevations over basal GH levels were observed in Beagle dog model after peroral dose of 0.25 mpk; 1/1; format: functional, Canis lupus familiaris
Canis familiaris [17] = organism: Canis familiaris; assay: Compound was evaluated for the lowest dose where fourfold elevations over basal GH levels were observed in Beagle dog model after peroral dose of 0.5 mpk; 2/2; format: functional, Canis lupus familiaris

**Q.** With CC(C)(N)C(=O)N[C@H](COCc1ccccc1)C(=O)N1CCC2(CC1)CN(S(C)(=O)=O)c1ccccc12.Cl as the compound, how does the half-life [1] read?
**A.** The half-life was 4.8 h.

**Q.** What about the Responders (Canis familiaris [2]) of the same compound?
**A.** Its Responders is 6.

**Q.** And the Responders (Canis familiaris [3])?
**A.** Its Responders is 8.

**Q.** Which Responders (Canis familiaris [4]) does the source give for CCOC(=O)C[C@@H]1CC2(CCN(C(=O)[C@@H](CCCc3ccccc3)NC(=O)C(C)(C)N)CC2)c2ccccc21.Cl here?
**A.** The Responders was 4.

**Q.** And the Responders (Canis familiaris [5])?
**A.** The Responders was 2.

**Q.** Which results are given for CCOC(=O)[C@H]1CC2(CCN(C(=O)[C@@H](CCCc3ccccc3)NC(=O)C(C)(C)N)CC2)c2ccccc21.Cl?
**A.** Responders (Canis familiaris [6]): 1; bioavailability [7]: 4.5%; Increase (Canis familiaris [8]): 45%; Responders (Canis familiaris [9]): 5; GH (Canis familiaris [10]): 65%; Fa [11]: > 50%; GH (Canis familiaris [12]): 80%; Increase (Canis familiaris [13]): 65%; bioavailability [14]: 11.8%

**Q.** Which Responders (Canis familiaris [15]) does the source give for CC(C)(N)C(=O)N[C@H](CCCc1ccccc1)C(=O)N1CCC2(CC1)C[C@H](C(=O)O)c1ccccc12.Cl here?
**A.** The Responders was 1.

**Q.** And the Responders (Canis familiaris [16])?
**A.** Its Responders is 1.

**Q.** And the half-life [1]?
**A.** Its half-life is 1.7 h.

**Q.** Which Responders (Canis familiaris [17]) does the source give for CC(C)(N)C(=O)N[C@H](CCCc1ccccc1)C(=O)N1CCC2(CC1)C[C@@H](CC(=O)O)c1ccccc12.Cl here?
**A.** The Responders was 2.
